Source: patent publication US7638503B2, “Small molecule stimulators of neuronal growth” (California Institute of Technology, priority 2004, dated 2009)

Key:
[1] = test system: dorsal root ganglion (DRG) neurons; assay: Outgrowth of cultured dorsal root ganglion (DRG) neurons from the spinal cord; format: cell-based
Excerpt: (§1) Effect of disaccharide CS-E, tetrasaccharides CS-E, and unsulfated tetrasaccharide on the growth of dopaminergic neurons as well as dorsal root ganglion (DRG) neurons from the spinal cord is illustrated in FIGS. 2A-B and 4A-B, respectively. In certain embodiments, the CS-E tetrasaccharide promoted the outgrowth of cultured dopaminergic and DRG neurons by 30-40% relative to the untreated controls. FIGS. 5 and 7 illustrate binding of tetrasaccharides CS-E, CS-C and disaccharide CS-E to tumor necrosis factor-α and midkine, respectively.

[2] = test system: primary hippocampal neurons; assay: Hippocampal neuronal growth: neurite outgrowth of cultured primary hippocampal neurons, anti-tau immunostaining, confocal microscopy; format: cell-based, Sprague-Dawley rats; conditions: 48 h
Method: In certain embodiments, the activity of the compounds provided herein to modulate neuronal growth, can be tested using cultured primary hippocampal neurons. Primary hippocampal neurons are cultured on poly-DL-ornithine-coated coverslips with or without each compound. After 48 h, the neurons are fixed, immunostained with anti-tau antibodies, and examined by confocal fluorescence microscopy. The effect of sulfated tetrasaccharide CS-E on neuronal morphology and growth is illustrated in FIGS. 1A-B. The number of neurites emanating from the cell body was enhanced, and the growth of the major extension was stimulated by 39.3±3.6% relative to the poly-DL-omithine control.
Hippocampal Neuronal Cultures. Hippocampal neuronal cultures were prepared using a modified version of the Goslin and Banker protocol (Goslin, K.; Banker, G. In Culturing Nerve Cells; Banker, G.; Goslin, K.; Eds.; MIT Press: Cambridge, Mass., 1991; pp 251-281). Embryos at the E18 stage were obtained from timed-pregnant Sprague-Dawley rats, and the hippocampus from each embryo was dissected. All the hippocampi from one preparation were transferred to a 15 mL conical tube containing 4.5 mL of ice-cold Calcium and Magnesium Free-Hank's Balanced Salt Solution (CMF-HBSS) (GIBCO). Trypsin (2.5%, no EDTA; GIBCO) was added to 5 mL, and the tissue was digested for 15 min at 37° C. The trypsin solution was removed and the tissue rinsed with 5 mL of CMF-HBSS three times. The tissue was then dissociated in 1 mL of CMF-HBSS by passing through a P1000 pipet tip twenty times. The cells were counted with a hemacytometer and plated on glass coverslips at 80 cells/mm2 and cultivated in minimal Eagle's Medium (MEM) (GIBCO) supplemented with the N2 mixture (GIBCO) and 0.1 mM pyruvate. The cultures were maintained in 5% CO2 at 37° C. Glass coverslips were coated as described by Clement et. al. (Clement, A.M.; Nadanaka, S.; Masayama, K.; Mandl, C.; Sugahara, K.; Faissner, A. J. Biol. Chem. 1998, 273, 28444-28453) Briefly, coverslips were precoated with 0.015 mg/mL poly-DL-ornithine (SIGMA) for 1 h at 37° C./5% CO2, washed three times with double distilled H2O, and coated with 0.5 mg/mL of compounds 1-3 in PBS overnight at 37° C./5% CO2. The coverslips were then washed three times with PBS and flooded with MEM+N2 media.
Immunocytochemistry of Hippocampal Neuronal Cultures. After 48 h in culture, hippocampal neurons on coverslips were used for immunostaining. […]
Morphometric Analysis. For quantitative analysis, 50 cells were analyzed per coverslip. Only cells with neurites longer than one cell body diameter were counted. The length of the longest neurite from stained cells was measured using N1H Image 1.52 software. […]

[3] = test system: dopaminergic neurons; assay: Outgrowth of cultured dopaminergic neurons; format: cell-based
Excerpt: as §1

[4] = primary hippocampal neurons on poly-DL-ornithine-coated coverslips with compound

Compound	outgrowth promoted relative to the untreated controls [1]	growth of the major extension stimulated relative to the poly-DL-ornithine control ([2]; primary hippocampal neurons on poly-DL-ornithine-coated coverslips with compound (0.5 mg/mL coating))	number of neurites emanating from the cell body [2, 4]	outgrowth promoted relative to the untreated controls [3]	effect on neuronal outgrowth [2, 4]
C=CCO[C@@H]1O[C@H](COS(=O)(=O)[O-])[C@H](OS(=O)(=O)[O-])[C@H](O[C@@H]2O[C@H](C(=O)[O-])[C@@H](O[C@@H]3O[C@H](COS(=O)(=O)[O-])[C@H](OS(=O)(=O)[O-])[C@H](O[C@@H]4O[C@H](C(=O)[O-])[C@@H](O)[C@H](O)[C@H]4O)[C@H]3NC(C)=O)[C@H](O)[C@H]2O)[C@H]1NC(C)=O.[Na+].[Na+].[Na+].[Na+].[Na+].[Na+] [sulfated tetrasaccharide CS-E, Allyl (sodium β-D-glucopyranosyluronate)-(1→3)-(4,6-di-O-sodiumsulfonato-2-deoxy-2-acetamido-β-D-galactopyranosyl)-(1→4)-(sodium β-D-glucopyranosyluronate)-(1→3)-4,6-di-O-sodium sulfonato-2-deoxy-2-acetamido-β-D-galactopyranoside]	30-40%	39.3±3.6%	enhanced	30-40%	
C=CCO[C@@H]1O[C@H](CO)[C@H](O)[C@H](O[C@@H]2O[C@H](C(=O)[O-])[C@@H](O[C@@H]3O[C@H](CO)[C@H](O)[C@H](O[C@@H]4O[C@H](C(=O)[O-])[C@@H](O)[C@H](O)[C@H]4O)[C@H]3NC(C)=O)[C@H](O)[C@H]2O)[C@H]1NC(C)=O.[Na+].[Na+] [unsulfated tetrasaccharide, Allyl (sodium β-D-glucopyranosyluronate)-(1→3)-(2-deoxy-2-acetamido-β-D-galactopyranosyl)-(1→4)-(sodium β-D-glucopyranosyluronate)-(1→3)-2-deoxy-2-acetamido-β-D-galactopyranoside]					no significant effect
Allyl (sodium β-D-glucopyranosyluronate)-(1→3)-4,6-di-O-sodium sulfonato-2-deoxy-2-acetamido-β-D-galactopyranoside [sulfated disaccharide]					no significant effect
